For assay [1], the species on record is Rattus norvegicus. The experiment in a line: Relative potency of compound to inhibit insulin secretion […]. The class given is functional.
The species named for assay [2] is Rattus norvegicus. Description: Relative potency of compound to inhibit growth hormone secretion in rat anterior pituitary cells. The format is functional, Pituitary gland cell.
The species named for assay [3] is Rattus norvegicus. Description: Relative potency of compound to inhibit glucagon secretion […]. The class given is functional.

Bridge positions count the residues as written; N and C are the ends. Square brackets hold non-standard residues; d marks the D form. Peptide text beside a SMILES is read from it. Where only a bound is given, the exact number is not on record here.

For `C[C@@H](O)[C@@H]1NC(=O)[C@H](CCCCN)NC(=O)[C@@H](Cc2c[nH]c3ccccc23)NC(=O)[C@H](Cc2ccccc2)NC(=O)[C@H](Cc2ccccc2)NC(=O)[C@H](CCCCN)NC(=O)[C@@H](N)CSSC[C@@H](C(=O)O)NC(=O)[C@H](Cc2ccccc2)NC1=O`, the Relative potency in the assay filed under Rattus norvegicus [1] is 310; in the assay filed under Rattus norvegicus [2], 15; in the assay listed under Rattus norvegicus [3], 115.

For the molecule `C[C@@H](O)[C@@H]1NC(=O)[C@H](CCCCN)NC(=O)[C@@H](Cc2c[nH]c3ccccc23)NC(=O)[C@H](Cc2ccccc2)NC(=O)[C@H](Cc2ccccc2)NC(=O)[C@H](CC(N)=O)NC(=O)[C@@H](N)CSSC[C@@H](C(=O)O)NC(=O)[C@H](Cc2ccccc2)NC1=O`, the Relative potency is listed as 72 in the assay listed under Rattus norvegicus [1], <1 in the assay filed under Rattus norvegicus [2] and <1 in the assay listed under Rattus norvegicus [3].

Consider `C[C@@H](O)[C@@H]1NC(=O)[C@H](CCCCN)NC(=O)[C@@H](Cc2c[nH]c3ccccc23)NC(=O)[C@H](Cc2ccccc2)NC(=O)[C@H](Cc2ccccc2)NC(=O)[C@@H](N)CSSC[C@@H](C(=O)O)NC1=O`, for which the figures for the Relative potency in the assay filed under Rattus norvegicus [1], in the assay filed under Rattus norvegicus [2] and in the assay filed under Rattus norvegicus [3] were <1, 0.07 and <1, respectively.

For the molecule `NCCCC[C@@H]1NC(=O)[C@@H](Cc2c[nH]c3ccccc23)NC(=O)[C@H](Cc2ccccc2)NC(=O)[C@H](Cc2ccccc2)NC(=O)[C@@H](N)CSSC[C@@H](C(=O)O)NC(=O)[C@H](Cc2ccccc2)NC1=O`, the Relative potency in the assay listed under Rattus norvegicus [1] is on record as <1; in the assay listed under Rattus norvegicus [2], <0.01; in the assay filed under Rattus norvegicus [3], <1.

As for `C[C@@H](O)[C@@H]1NC(=O)[C@H](CCCCN)NC(=O)[C@@H](Cc2c[nH]c3ccccc23)NC(=O)[C@H](Cc2ccccc2)NC(=O)[C@H](Cc2ccccc2)NC(=O)[C@@H](N)CSSC[C@@H](C(=O)O)NC(=O)[C@H](Cc2ccccc2)NC1=O` (H-CFF[dW]KTFC-OH; disulfide 1-8), the Relative potency in the assay filed under Rattus norvegicus [1] is given as 45; in the assay listed under Rattus norvegicus [2], 4; in the assay listed under Rattus norvegicus [3] it was 7.
